Measured values: ChEMBL document CHEMBL4842328, “A cyclic peptide inhibitor of the SARS-CoV-2 main protease” (Eur J Med Chem, 2021)
The source made the active and inactive calls. The calls are words filed in the database; no cut-off is given here. Numbered stars: 1 amine (or outer) side, 2 acyl side, 3 side chain; on linkers, the order of the positions; unused ones are H or OH. Square brackets hold non-standard residues; d marks the D form. Peptide text beside a SMILES is read from it. * marks the point of attachment. X2 = O=C(Cc1ccc(CCN[*:1])cc1)[*:2]; X1 = NC(=O)Cc1ccc(CCN*)cc1

Tests used:
[1] = test system: Severe acute respiratory syndrome coronavirus 2; experiment: Inhibition of SARS-CoV-2 main protease using K(Dabcy1)-TSAVLQSGFRKM-E-Edans-NH2 as substrate at <=750 uM preincubated with enzyme for 30 mins followed by substrate addition by FRET assay; conditions: dose microM <=750, time 30.0 min
[2] = Inhibition of SARS-CoV-2 main protease using K(Dabcy1)-TSAVLQSGFRKM-E-Edans-NH2 as substrate preincubated with enzyme for 30 mins followed by substrate addition by FRET assay; set-up: species or system Severe acute respiratory syndrome coronavirus 2
[3] = Stability of the compound assessed as SARS-CoV-2 main protease-mediated compound cleavage at 187.5 uM measured after 4 hrs by LC/MS analysis; type: ADME; conditions: severe acute respiratory syndrome coronavirus 2, 4 h
HEK293 = experiment: Cytotoxicity against human HEK293 assessed as reduction in cell viability upto 256 uM after 72 hrs by LDH assay; type: cell-based; conditions: hek293, 72 h

SMILES	inhibition [1]	IC50 [2] [µM]	Stabilty [3]	Activity (HEK293)
CC(=O)N[C@@H](Cc1ccccc1)C(=O)N[C@@H](CCC(N)=O)C(=O)N[C@@H](CO)C(=O)N[C@@H](CCCCN)C(=O)NCCc1ccc(CC(N)=O)cc1 (Ac-FQSK-X1)	inactive	> 1500		
NCCCC[C@@H]1NC(=O)[C@H](CO)NC(=O)[C@H](CCC(N)=O)NC(=O)[C@H](Cc2ccccc2)NC(=O)Cc2ccc(cc2)CCNC1=O.O=C(O)C(F)(F)F (cyclo(FQSK[X2]))			Stable	Non-Toxic
NCCCC[C@@H]1NC(=O)[C@H](CO)NC(=O)[C@H](CCC(N)=O)NC(=O)[C@@H](Cc2ccccc2)NC(=O)Cc2ccc(cc2)CCNC1=O (cyclo([dF]QSK[X2]))		> 1500		
